Data reported in patent publication US7622481B2, “Antibacterial compounds” (priority 2003, dated 2009).
Counter-ions that a name gives are not always drawn. Like-named read-outs stand apart in the source and are kept apart here.

Assay: MIC of test compounds against various organisms
Assay type: cell-based
Experimental: The MIC (μg/ml) of test compounds against various organisms was determined including:
S. epidermidis CL7, S. aureus WCUH29, S. pneumoniae 1629, S. pyogenes CN10, H. influenzae ATCC 49247, E. faecalis 2, M. catarrhalis Ravasio, E. coli 7623.

[1] = versus all these organisms (panel of 8 strains), read-out: MIC
[2] = versus at least one of these organisms (panel of 8 strains), read-out: MIC
[3] = versus some of these organisms (panel of 8 strains), read-out: MIC

| Structure (SMILES) | MIC [1] | further results |
| --- | --- | --- |
| Cn1ccc2cccc(NC(=O)[C@]3(O)CC[C@@H](NCc4ccc5c(n4)NC(=O)CS5)CC3)c2c1=O [Example 26, 1-Hydroxy-t-4-[(3-oxo-3,4-dihydro-2H-pyrido[3,2-b][1,4]thiazin-6-ylmethyl)-amino]-r-cyclohexanecarboxylic acid (2-methyl-1-oxo-1,2-dihydro-isoquinolin-8-yl)-amide hydrochloride] | ≤ 2 mg/L |  |
| O=C1CSc2ccc(CN[C@H]3CC[C@H](C(=O)Nc4cccc5cnccc45)CC3)cc2N1 [Example 4, trans-4-[(3-Oxo-3,4-dihydro-2H-benzo[1,4]thiazin-6-ylmethyl)-amino]-cyclohexanecarboxylic acid isoquinolin-5-ylamide] |  | MIC [2]: ≤ 16 mg/L |
| COc1ccc2cccc(NC(=O)[C@]3(O)CC[C@@H](NCc4nc5c(cc4Cl)SCC(=O)N5)CC3)c2n1 [Example 24, t-4-[(7-Chloro-3-oxo-3,4-dihydro-2H-pyrido[3,2-b][1,4]thiazin-6-ylmethyl)-amino]-1-hydroxy-r-cyclohexanecarboxylic acid (2-methoxy-quinolin-8-yl)-amide dihydrochloride] |  | MIC [3]: ≤ 2 mg/L |
| N#Cc1ccc2cccc(NC(=O)[C@@H]3CC[C@@H](NCc4cc5c(cn4)OCCO5)[C@@H](O)C3)c2n1 [Example 37, (1R,3S,4R)-4-[(2,3-Dihydro-[1,4]dioxino[2,3-c]pyridin-7-ylmethyl)-amino]-3-hydroxy-cyclohexanecarboxylic acid (2-cyano-quinolin-8-yl)-amide hydrochloride] |  | MIC: ≤ 2 mg/L |
| Cc1ccc2cccc(NC(=O)[C@H]3CC[C@H](NCc4cc5c(cn4)OCCO5)CC3)c2n1 [Example 36, t-4-[(2,3-Dihydro-[1,4]dioxino[2,3-c]pyridin-7-ylmethyl)-amino]-cyclohexanecarboxylic acid (2-methyl-quinolin-8-yl)-amide dihydrochloride] | ≤ 8 mg/L |  |
| O=C1COc2ccc(CN[C@H]3CC[C@](O)(C(=O)Nc4ccnc5ccncc45)CC3)nc2N1 [Example 29, 1-Hydroxy-t-4-[(3-oxo-3,4-dihydro-2H-pyrido[3,2-b][1,4]oxazin-6-ylmethyl)-amino]-r-cyclohexanecarboxylic acid [1,6]naphthyridin-4-ylamide] |  | MIC [3]: ≤ 2 mg/L |
| O=C1CSc2ccc(CN[C@H]3CC[C@](O)(C(=O)Nc4ccnc5c4OCCO5)CC3)nc2N1 [Example 2, 1-Hydroxy-t-4-[(3-oxo-3,4-dihydro-2H-pyrido[3,2-b][1,4]thiazin-6-ylmethyl)-amino]-r-cyclohexanecarboxylic acid (2,3-dibydro-[1,4]dioxino[2,3-b]pyridin-8-yl)-amide dihydrochloride] |  | MIC [2]: ≤ 16 mg/L |
| N#Cc1ccc2cccc(NC(=O)[C@@H]3CC[C@@H](NCc4ccc5c(n4)NC(=O)CS5)[C@H](O)C3)c2n1 [Example 14, (1R,3R,4R)-3-Hydroxy-4-[(3-oxo-3,4-dihydro-2H-pyrido[3,2-b][1,4]thiazin-6-ylmethyl)-amino]-cyclohexanecarboxylic acid (2-cyano-quinolin-8-yl)-amide hydrochloride] | ≤ 2 mg/L |  |
| N#Cc1ccc2cccc(NC(=O)[C@H]3CC[C@H](NCc4ccc5c(n4)NC(=O)CS5)[C@H](O)C3)c2n1 [Example 12, (1 S,3R,4S)-3-Hydroxy-4-[(3-oxo-3,4-dihydro-2H-pyrido[3,2-b][1,4]thiazin-6-ylmethyl)-amino]-cyclohexanecarboxylic acid (2-cyano-quinolin-8-yl)-amide hydrochloride] | ≤ 2 mg/L |  |
| Cc1ccc2cccc(NC(=O)[C@]3(O)CC[C@@H](NCc4cc5c(cn4)OCCO5)CC3)c2n1 [Example 35, t-4-[(2,3-Dihydro-[1,4]dioxino[2,3-c]pyridin-7-ylmethyl)-amino]-1-hydroxy-c-cyclohexanecarboxylic acid (2-methyl-quinolin-8-yl)-amide dihydrochloride] | ≤ 8 mg/L |  |
| COc1nccc2cccc(NC(=O)[C@]3(O)CC[C@@H](NCc4ccc5c(n4)NC(=O)CS5)CC3)c12 [Example 27, 1-Hydroxy-t-4-[(3-oxo-3,4-dihydro-2H-pyrido[3,2-b][1,4]thiazin-6-ylmethyl)-amino]-r-cyclohexanecarboxylic acid (1-methoxy-isoquinolin-8-yl)-amide hydrochloride] | ≤ 8 mg/L |  |
| N#Cc1ccc2cccc(NC(=O)[C@H]3CC[C@H](NCc4ccc5c(n4)NC(=O)CO5)[C@H](O)C3)c2n1 [Example 13, (1S,3R,4S)-3-Hydroxy-4-[(3-oxo-3,4-dihydro-2H-pyrido[3,2-b][1,4]oxazin-6-ylmethyl)-amino]-cyclohexanecarboxylic acid (2-cyano-quinolin-8-yl)-amide hydrochloride] | ≤ 2 mg/L |  |
| O=C1CSc2ccc(CN[C@H]3CC[C@H](C(=O)Nc4ccnc5ccccc45)CC3)nc2N1 [Example 3, trans-4-[(3-Oxo-3,4-dihydro-2H-pyrido[3,2-b][1,4]thiazin-6-ylmethyl)-amino]-cyclohexanecarboxylic acid quinolin-4-ylamide dihydrochloride] |  | MIC: ≤ 8 mg/L |
| CC1CNc2cccc(NC(=O)[C@]3(O)CC[C@@H](NCc4ccc5c(n4)NC(=O)CO5)CC3)c2N1 (some centres unmarked) [Example 33, 1-Hydroxy-t-4-[(3-oxo-3,4-dihydro-2H-pyrido[3,2-b][1,4]oxazin-6-ylmethyl)-amino]-c-cyclohexanecarboxylic acid (3-methyl-1,2,3,4-tetrahydro-quinoxalin-5-yl)-amide dihydrochloride] |  | MIC [3]: ≤ 2 mg/L |
| Cc1ccc2cccc(NC(=O)[C@]3(O)CC[C@@H](NCc4cc5c(cn4)OCC(=O)N5)CC3)c2n1 [Example 22, 1-Hydroxy-t-4-[(2-oxo-2,3-dihydro-1H-pyrido[3,4-b][1,4]oxazin-7-ylmethyl)-amino]-r-cyclohexanecarboxylic acid (2-methyl-quinolin-8-yl)-amide dihydrochloride] | ≤ 2 mg/L |  |
| Cc1cnc2c(NC(=O)[C@]3(O)CC[C@@H](NCc4ccc5c(n4)NC(=O)CS5)CC3)cccc2n1 [Example 30, 1-Hydroxy-t-4-[(3-oxo-3,4-dihydro-2H-pyrido[3,2-b][1,4]thiazin-6-ylmethyl)-amino]-r-cyclohexanecarboxylic acid (2-methyl-quinoxalin-5-yl)-amide dihydrochloride] |  | MIC [2]: ≤ 16 mg/L |
| COc1ccc2nccc(NC(=O)[C@@H]3CC[C@@H](NCc4nc5c(cc4F)SCC(=O)N5)[C@@H](F)C3)c2n1 [Example 32, (1R,3S,4R)-3-Fluoro-4[(7-fluoro-3-oxo-3,4-dihydro-2H-pyrido[3,2-b][1,4]thiazin-6-ylmethyl)-amino]-cyclohexanecarboxylic acid (6-methoxy-[1,5]naphthyridin-4-yl)-amide dihydrochloride] |  | MIC: ≤ 2 mg/L |

Second part, led by results:

| MIC [1] | Structure (SMILES) | further results |
| --- | --- | --- |
| ≤ 2 mg/L | COc1ccc2cccc(CC[C@]3(O)CC[C@@H](NCc4cnc5c(c4)NC(=O)CS5)CC3)c2n1 [Example 21, 7-({r-4-Hydroxy-4-[2-(2-methoxy-quinolin-8-yl)-ethyl]-c-cyclohexylamino}-methyl)-1H-pyrido[2,3-b][1,4]thiazin-2-one] |  |
| ≤ 2 mg/L | COc1ccc2cccc(CC[C@]3(O)CC[C@@H](NCc4ccc5c(n4)NC(=O)CO5)CC3)c2n1 [Example 7, 6-({4-Hydroxy-4-[2-(2-methoxy-quinolin-8-yl)-ethyl]-cyclohexylamino}-methyl)-4H-pyrido[3,2-b][1,4]oxazin-3-one] |  |
| ≤ 2 mg/L | COc1cnc2cccc(NC(=O)[C@]3(O)CC[C@@H](NCc4ccc5c(n4)NC(=O)CS5)CC3)c2n1 [Example 34, 1-Hydroxy-t-4-[(3-oxo-3,4-dihydro-2Hpyrido[3,2-b][1,4]thiazin-6-ylmethyl)-amino]-r-cyclohexanecarboxylic acid (3-methoxy-quinoxalin-5-yl)-amide hydrochloride] |  |
| ≤ 2 mg/L | Cc1cnc2cccc(NC(=O)[C@]3(O)CC[C@@H](NCc4ccc5c(n4)NC(=O)CS5)CC3)c2n1 [Example 25, 1-Hydroxy-t-4-[(3-oxo-3,4-dihydro-2H-pyrido[3,2-b][1,4]thiazin-6-ylmethyl)-amino]-r-cyclohexanecarboxylic acid (3-methyl-quinoxalin-5-yl)-amide dihydrochloride] |  |
| ≤ 2 mg/L | N#Cc1ccc2cccc(NC(=O)[C@]3(O)CC[C@@H](NCc4ccc5c(n4)NC(=O)CO5)CC3)c2n1 [Example 11, 1-Hydroxy-t-4-[(3-oxo-3,4-dihydro-2H-pyrido[3,2-b][1,4]oxazin-6-ylmethyl)-amino]-r-cyclohexanecarboxylic acid (2-cyano-quinolin-8-yl)-amide hydrochloride] |  |
| ≤ 2 mg/L | Cc1ccc2cccc(NC(=O)[C@]3(O)CC[C@@H](NCc4ccc5c(n4)NC(=O)CS5)CC3)c2n1 [Example 19, 1-Hydroxy-t-4-[(3-oxo-3,4-dihydro-2H-pyrido[3,2-b][1,4]thiazin-6-ylmethyl)-amino]-r-cyclohexanecarboxylic acid (2-methyl-quinolin-8-yl)-amide dihydrochloride] |  |
| ≤ 2 mg/L | N#Cc1ccc2nccc(NC(=O)[C@]3(O)CC[C@@H](NCc4ccc5c(n4)NC(=O)CS5)CC3)c2c1 [Example 40, 1-Hydroxy-t-4-[(3-oxo-3,4-dihydro-2H-pyrido[3,2-b][1,4]thiazin-6-ylmethyl)-amino]-r-cyclohexanecarboxylic acid (6-cyano-quinolin-4-yl)-amide dihydrochloride] |  |
| ≤ 2 mg/L | COc1ccc2cccc(NC(=O)[C@]3(O)CC[C@@H](NCc4ccc5c(n4)NC(=O)CS5)CC3)c2n1 [Example 5, 1-Hydroxy-t-4-[(3-oxo-3,4-dihydro-2H-pyrido[3,2-b][1,4]thiazin-6-ylmethyl)-amino]-r-cyclohexanecarboxylic acid (2-methoxy-quinolin-8-yl)-amide] |  |
| ≤ 2 mg/L | COc1ccc2cccc(CCC3(O)CCC(NCc4ccc5c(n4)NC(=O)CS5)CC3)c2n1 (centres unmarked) [Example 8, 6-({4-Hydroxy-4-[2-(2-methoxy-quinolin-8-yl)-ethyl]-cyclohexylamino}-methyl)-4H-pyrido[3,2-b][1,4]thiazin-3-one] |  |
